Measurements as given in patent US20260306503A1, “(S)-2-HYDROXY-6-((4-(2-(2-HYDROXYETHYL)NICOTINOYL)MORPHOLIN-3-YL)METHOXY)BENZALDEHYD FOR USE IN THE TREATMENT OF SICKLE CELL DISEASE” (Global Blood Therapeutics, Inc., priority 2023, published 2026).

System: participants with SCD
Assay: Preliminary blood analysis of SCD patients given oral Compound I, 300 mg QD for 14 days then 200 mg QD through Week 12 (Part A Sub Study 2);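 for Bilirubin total: values in mg/dL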
Format: in vivo, human
Details: for Bilirubin total: Day 0 (screening) 4.84
Method: Part A of this study is a Phase 2 randomized, open-label, dose-finding study in approximately 60 adult participants with SCD. The primary objective of Part A of this study is to assess the effects of Compound I in adult participants with SCD as measured by change in hemoglobin.
Participants are screened for eligibility in the study from Day −28 through Day −1. Eligible participants are randomized on Day 1 based on a 1:1 (100 mg: 150 mg) allocation and will receive their initial dose (loading dose) of Compound I. After completion of Day 1 assessments and subsequent loading doses, participants will continue with administration of their maintenance dose daily through Week 12.
Some newly enrolled participants in Part A will receive a loading dose regimen of 300 mg of Compound I once daily over the first 14 days. Participants will then receive 200 mg once daily maintenance doses through Week 12.

Alkaline phosphatase (Patient B, Day 43, Day 0 (screening) 49.3): 67.6 IU/L
Platelet count (Patient B, Day 43, Day 0 (screening) 360): 260 K/μL
Absolute neutrophil (Patient B, Day 57, Day 0 (screening) 6.9): 5.5 K/μL
Alkaline phosphatase (Patient B, Day 57, Day 0 (screening) 49.3): 69.6 IU/L
Platelet count (Patient B, Day 57, Day 0 (screening) 360): 290 K/μL
Absolute neutrophil (Patient B, Day 85, Day 0 (screening) 6.9): 5.6 K/μL
Alkaline phosphatase (Patient B, Day 85, Day 0 (screening) 49.3): 72.6 IU/L
Platelet count (Patient B, Day 85, Day 0 (screening) 360): 256 K/μL
Alkaline phosphatase (Patient C, Day 1, Day 0 (screening) 52.4): 51.4 IU/L
Absolute neutrophil (Patient C, Day 8, Day 0 (screening) 0.8): 6.7 K/μL
Alkaline phosphatase (Patient C, Day 8, Day 0 (screening) 52.4): 61.5 IU/L
Platelet count (Patient C, Day 8, Day 0 (screening) 392): 405 K/μL
Absolute neutrophil (Patient C, Day 15, Day 0 (screening) 0.8): 3.9 K/μL
Alkaline phosphatase (Patient C, Day 15, Day 0 (screening) 52.4): 54.4 IU/L
Platelet count (Patient C, Day 15, Day 0 (screening) 392): 482 K/μL
Absolute neutrophil (Patient C, Day 29, Day 0 (screening) 0.8): 2.6 K/μL
Alkaline phosphatase (Patient C, Day 29, Day 0 (screening) 52.4): 51.4 IU/L
Platelet count (Patient C, Day 29, Day 0 (screening) 392): 357 K/μL
Absolute neutrophil (Patient C, Day 43, Day 0 (screening) 0.8): 1.0 K/μL
Alkaline phosphatase (Patient C, Day 43, Day 0 (screening) 52.4): 58.5 IU/L
Platelet count (Patient C, Day 43, Day 0 (screening) 392): 416 K/μL
Absolute neutrophil (Patient C, Day 57, Day 0 (screening) 0.8): 4.3 K/μL
Alkaline phosphatase (Patient C, Day 57, Day 0 (screening) 52.4): 56.4 IU/L
Platelet count (Patient C, Day 57, Day 0 (screening) 392): 413 K/μL
Absolute neutrophil (Patient C, Day 85, Day 0 (screening) 0.8): 4.9 K/μL
Alkaline phosphatase (Patient C, Day 85, Day 0 (screening) 52.4): 55.4 IU/L
Platelet count (Patient C, Day 85, Day 0 (screening) 392): 457 K/μL
Structure (SMILES): O=Cc1c(O)cccc1OC[C@@H]1COCCN1C(=O)c1cccnc1CCO [Compound I, (S)-2-hydroxy-6-((4-(2-(2-hydroxyethyl)nicotinoyl)morpholin-3-yl)methoxy)benzaldehyde]
Hematocrit (HCT) (Patient B, Day 43, Day 0 (screening) 23.5): 45.4%
Aspartate Aminotransferase (AST) (Patient B, Day 43, Day 0 (screening) 41.1): 27.1 IU/L
Lactate dehydrogenase (LDH) (Patient B, Day 43, Day 0 (screening) 371): 151 IU/L
Bilirubin direct (Patient B, Day 57, Day 0 (screening) 0.18): 0.18 mg/dL
Bilirubin indirect (Patient B, Day 57, Day 0 (screening) 4.66): 0.39 mg/dL
Bilirubin total (Patient B, Day 57): 0.57 mg/dL
Hemoglobin (HGB) (Patient B, Day 57, Day 0 (screening) 8.3): 14.3 g/dL
Reticulocytes (Patient B, Day 57, Day 0 (screening) 11.5): 0.9%
Alanine Aminotransferase (ALT) (Patient B, Day 57, Day 0 (screening) 22.0): 17.9 IU/L
Hematocrit (HCT) (Patient B, Day 57, Day 0 (screening) 23.5): 42.6%
Aspartate Aminotransferase (AST) (Patient B, Day 57, Day 0 (screening) 41.1): 26.2 IU/L
Lactate dehydrogenase (LDH) (Patient B, Day 57, Day 0 (screening) 371): 152 IU/L
Bilirubin direct (Patient B, Day 85, Day 0 (screening) 0.18): <0.01 mg/dL
Bilirubin total (Patient B, Day 85): 0.94 mg/dL
Hemoglobin (HGB) (Patient B, Day 85, Day 0 (screening) 8.3): 14.9 g/dL
Reticulocytes (Patient B, Day 85, Day 0 (screening) 11.5): 1.1%
Alanine Aminotransferase (ALT) (Patient B, Day 85, Day 0 (screening) 22.0): 20.0 IU/L
Hematocrit (HCT) (Patient B, Day 85, Day 0 (screening) 23.5): 43.7%
Aspartate Aminotransferase (AST) (Patient B, Day 85, Day 0 (screening) 41.1): 27.1 IU/L
Lactate dehydrogenase (LDH) (Patient B, Day 85, Day 0 (screening) 371): 141 IU/L
Bilirubin direct (Patient C, Day 1, Day 0 (screening) 0.58): 0.58 mg/dL
Bilirubin indirect (Patient C, Day 1, Day 0 (screening) 4.26): 4.87 mg/dL
Bilirubin total (Patient C, Day 1): 5.45 mg/dL
Alanine Aminotransferase (ALT) (Patient C, Day 1, Day 0 (screening) 20.0): 24.8 IU/L
Aspartate Aminotransferase (AST) (Patient C, Day 1, Day 0 (screening) 48.0): 62.0 IU/L
Lactate dehydrogenase (LDH) (Patient C, Day 1, Day 0 (screening) 533): 691 IU/L
Bilirubin direct (Patient C, Day 8, Day 0 (screening) 0.58): 0.38 mg/dL
Bilirubin indirect (Patient C, Day 8, Day 0 (screening) 4.26): 3.85 mg/dL
Bilirubin total (Patient C, Day 8): 4.23 mg/dL
Hemoglobin (HGB) (Patient C, Day 8, Day 0 (screening) 7.1): 9.1 g/dL
Reticulocytes (Patient C, Day 8, Day 0 (screening) 13.7): 9.9%
Alanine Aminotransferase (ALT) (Patient C, Day 8, Day 0 (screening) 20.0): 28.9 IU/L
Hematocrit (HCT) (Patient C, Day 8, Day 0 (screening) 21.0): 25.9%
Aspartate Aminotransferase (AST) (Patient C, Day 8, Day 0 (screening) 48.0): 57.0 IU/L
Lactate dehydrogenase (LDH) (Patient C, Day 8, Day 0 (screening) 533): 545 IU/L
Bilirubin direct (Patient C, Day 15, Day 0 (screening) 0.58): 0.38 mg/dL
Bilirubin indirect (Patient C, Day 15, Day 0 (screening) 4.26): 3.12 mg/dL
Bilirubin total (Patient C, Day 15): 3.50 mg/dL
Hemoglobin (HGB) (Patient C, Day 15, Day 0 (screening) 7.1): 10.2 g/dL
Reticulocytes (Patient C, Day 15, Day 0 (screening) 13.7): 5.0%
Alanine Aminotransferase (ALT) (Patient C, Day 15, Day 0 (screening) 20.0): 18.6 IU/L
Hematocrit (HCT) (Patient C, Day 15, Day 0 (screening) 21.0): 29.8%
Aspartate Aminotransferase (AST) (Patient C, Day 15, Day 0 (screening) 48.0): 34.1 IU/L
Lactate dehydrogenase (LDH) (Patient C, Day 15, Day 0 (screening) 533): 327 IU/L
Bilirubin direct (Patient C, Day 29, Day 0 (screening) 0.58): 0.38 mg/dL
Bilirubin indirect (Patient C, Day 29, Day 0 (screening) 4.26): 2.51 mg/dL
Bilirubin total (Patient C, Day 29): 2.89 mg/dL
Hemoglobin (HGB) (Patient C, Day 29, Day 0 (screening) 7.1): 11.6 g/dL
Reticulocytes (Patient C, Day 29, Day 0 (screening) 13.7): 1.8%
Alanine Aminotransferase (ALT) (Patient C, Day 29, Day 0 (screening) 20.0): 17.2 IU/L
Hematocrit (HCT) (Patient C, Day 29, Day 0 (screening) 21.0): 33.9%
Aspartate Aminotransferase (AST) (Patient C, Day 29, Day 0 (screening) 48.0): 39.1 IU/L
Lactate dehydrogenase (LDH) (Patient C, Day 29, Day 0 (screening) 533): 256 IU/L
Bilirubin direct (Patient C, Day 43, Day 0 (screening) 0.58): 0.28 mg/dL
Bilirubin indirect (Patient C, Day 43, Day 0 (screening) 4.26): 4.44 mg/dL
Bilirubin total (Patient C, Day 43): 4.72 mg/dL
Hemoglobin (HGB) (Patient C, Day 43, Day 0 (screening) 7.1): 10.5 g/dL
Reticulocytes (Patient C, Day 43, Day 0 (screening) 13.7): 2.8%
Alanine Aminotransferase (ALT) (Patient C, Day 43, Day 0 (screening) 20.0): 26.8 IU/L
Hematocrit (HCT) (Patient C, Day 43, Day 0 (screening) 21.0): 30.1%
Aspartate Aminotransferase (AST) (Patient C, Day 43, Day 0 (screening) 48.0): 46.1 IU/L
Lactate dehydrogenase (LDH) (Patient C, Day 43, Day 0 (screening) 533): 291 IU/L
Bilirubin direct (Patient C, Day 57, Day 0 (screening) 0.58): 0.18 mg/dL
Bilirubin indirect (Patient C, Day 57, Day 0 (screening) 4.26): 3.44 mg/dL
Bilirubin total (Patient C, Day 57): 3.62 mg/dL
Hemoglobin (HGB) (Patient C, Day 57, Day 0 (screening) 7.1): 10.4 g/dL
Reticulocytes (Patient C, Day 57, Day 0 (screening) 13.7): 4.2%
Alanine Aminotransferase (ALT) (Patient C, Day 57, Day 0 (screening) 20.0): 21.3 IU/L
Hematocrit (HCT) (Patient C, Day 57, Day 0 (screening) 21.0): 28.9%
Aspartate Aminotransferase (AST) (Patient C, Day 57, Day 0 (screening) 48.0): 46.1 IU/L
Lactate dehydrogenase (LDH) (Patient C, Day 57, Day 0 (screening) 533): 296 IU/L
Bilirubin direct (Patient C, Day 85, Day 0 (screening) 0.58): <0.01 mg/dL
Bilirubin total (Patient C, Day 85): 3.62 mg/dL
Hemoglobin (HGB) (Patient C, Day 85, Day 0 (screening) 7.1): 10.0 g/dL
Reticulocytes (Patient C, Day 85, Day 0 (screening) 13.7): 5.9%
Alanine Aminotransferase (ALT) (Patient C, Day 85, Day 0 (screening) 20.0): 20.6 IU/L
Hematocrit (HCT) (Patient C, Day 85, Day 0 (screening) 21.0): 28.2%
Aspartate Aminotransferase (AST) (Patient C, Day 85, Day 0 (screening) 48.0): 39.1 IU/L
Lactate dehydrogenase (LDH) (Patient C, Day 85, Day 0 (screening) 533): 276 IU/L
